Experimental data as given in patent publication EP1073435B1, “SUBSTITUTED TRICYCLIC PYRAZOLE DERIVATIVES WITH PROTEIN KINASE ACTIVITY” (Abbott GmbH & Co. KG, priority 1998, dated 1999).

How the values were obtained:
Assay type in all cases: biochemical
Lck = Lck (Homo sapiens, UniProt P06239); experiment: ELISA tyrosine kinase assay, Lck
Experimental: Lck or truncated forms of Lck may be commercially obtained ( e.g. from Upstate Biotechnology Inc. (Saranac Lake, N.Y) and Santa Cruz Biotechnology Inc. (Santa Cruz, Ca.)) or purified from known natural or recombinant sources using conventional methods.
• 1. Plate Preparation: Dilute PGT stock (50mg/ml, frozen) in PBS to a 250µg/ml. Add 125µl per well of Coming modified flat bottom high affinity ELISA plates (Corning #25805-96). Add 125µl PBS to blank wells. Cover with sealing tape and incubate overnight 37°C. Wash 1x with 250µl washing buffer and dry for about 2hrs in 37°C dry incubator. Store coated plates in sealed bag at 4°C until used. • 2. Tyrosine Kinase Reaction: • Prepare inhibitor solutions at a 4x concentration in 20% DMSO in water. • Prepare reaction buffer • Prepare enzyme solution so that desired units are in 50µl, e.g. for KDR make to 1 ng/µl for a total of 50ng per well in the reactions. Store on ice. • Make 4x ATP solution to 20µM from 100mM stock in water. Store on ice • Add 50µl of the enzyme solution per well • Add 25µl 4x inhibitor • Add 25µl 4x ATP for inhibitor assay • Incubate for 10 minutes at room temperature • Stop reaction by adding 50µl 0.05N HCl per well • Wash plate **Final Concentrations for Reaction: • ATP: 5µM • 5% DMSO • 3. […] Shake on plate reader. • Read OD immediately at 450nm […]

human Tie-2 = biological target: T1, human Tie-2 (Homo sapiens, UniProt Q02763); experiment: ELISA tyrosine kinase assay, TIE2
T1 construct: human Tie-2 intra-cellular domain (aa775-1124) was generated through PCR; made in house; host or cells: SF-9 insect cells (baculovirus)
T1 sequence (Q02763 775-1124): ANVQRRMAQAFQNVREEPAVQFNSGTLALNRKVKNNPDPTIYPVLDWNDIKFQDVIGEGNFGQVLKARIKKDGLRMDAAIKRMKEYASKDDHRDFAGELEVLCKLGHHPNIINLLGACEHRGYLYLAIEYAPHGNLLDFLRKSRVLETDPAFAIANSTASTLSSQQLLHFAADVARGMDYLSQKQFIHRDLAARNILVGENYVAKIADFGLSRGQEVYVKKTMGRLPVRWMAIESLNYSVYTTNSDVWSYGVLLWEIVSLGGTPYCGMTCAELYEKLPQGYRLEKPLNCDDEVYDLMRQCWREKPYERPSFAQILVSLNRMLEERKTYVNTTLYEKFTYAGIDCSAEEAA
From the text: The coding sequence for the human Tie-2 intra-cellular domain (aa775-1124) was generated through PCR using cDNAs isolated from human placenta as a template. A poly-His6 sequence was introduced at the N-terminus and this construct was cloned into transfection vector […] at the Xba 1 and Not 1 site. Recombinant BV was generated through co-transfection using the BaculoGold Transfection reagent (PharMingen). Recombinant BV was plaque purified and verified through Western analysis. For protein production, SF-9 insect cells were grown in SF-900-II medium at 2 x 10^6/ml, and were infected at MOI of 0.5. Purification of the His-tagged kinase used in screening was analogous to that described for KDR.
The disclosed protocol can be adapted for determining activity with respect to a specific RTK. For example, preferred protocols for conducting the ELISA experiments for KDR is provided below. Adaptation of these protocols for determining a compounds activity for other members of the RTK family, as well as non-receptor tyrosine kinases, are well within the abilities of those in the art.
• 1. Plate Preparation: Dilute PGT stock (50mg/ml, frozen) in PBS to a 250µg/ml. Add 125µl per well of Coming modified flat bottom high affinity ELISA plates (Corning #25805-96). Add 125µl PBS to blank wells. Cover with sealing tape and incubate overnight 37°C. […] Shake on plate reader. • Read OD immediately at 450nm

KDR tyrosine kinase = biological target: T2, KDR tyrosine kinase (Homo sapiens, UniProt P35968); experiment: KDR in vitro ELISA; conditions: ELISA assay, ATP 5µM
T2 construct: poly-His6 (N); made in house; host or cells: SF-9 insect cells (baculovirus, pVL1393)
T2 sequence (P35968 789-1354): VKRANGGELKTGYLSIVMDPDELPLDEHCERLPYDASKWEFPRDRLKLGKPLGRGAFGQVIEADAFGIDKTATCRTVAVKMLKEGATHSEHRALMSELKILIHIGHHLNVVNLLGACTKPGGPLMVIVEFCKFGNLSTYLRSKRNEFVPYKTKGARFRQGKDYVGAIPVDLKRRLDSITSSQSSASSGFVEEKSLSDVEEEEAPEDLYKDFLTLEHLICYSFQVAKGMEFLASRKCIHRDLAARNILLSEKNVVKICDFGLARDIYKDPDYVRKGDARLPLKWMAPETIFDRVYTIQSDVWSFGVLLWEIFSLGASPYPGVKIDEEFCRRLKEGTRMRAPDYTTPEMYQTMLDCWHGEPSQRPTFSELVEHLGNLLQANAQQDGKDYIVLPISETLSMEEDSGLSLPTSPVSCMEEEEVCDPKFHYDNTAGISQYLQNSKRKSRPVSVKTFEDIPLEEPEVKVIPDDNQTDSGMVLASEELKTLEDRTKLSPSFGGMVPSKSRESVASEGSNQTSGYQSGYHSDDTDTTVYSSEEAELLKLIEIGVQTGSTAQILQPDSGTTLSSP
From the text: The coding sequence for the KDR intra-cellular domain (aa789-1354) was generated through PCR using cDNAs isolated from HUVEC cells. A poly-His6 sequence was introduced at the N-terminus of this protein as well. This fragment was cloned into transfection vector pVL1393 at the Xba 1 and Not 1 site. Recombinant baculovirus (BV) was generated through co-transfection using the BaculoGold Transfection reagent (PharMingen). Recombinant BV was plaque purified and verified through Western analysis. For protein production, SF-9 cells were grown in SF-900-II medium at 2 x 10^6/ml, and were infected at 0.5 plaque forming units per cell (MOI). Cells were harvested at 48 hours post infection.
SF-9 cells expressing (His)6KDR(aa789-1354) were lysed by adding 50 ml of Triton X-100 lysis buffer (20 mM Tris, pH 8.0, 137 mM NaCl, 10% glycerol, 1% Triton X-100, 1mM PMSF, 10µg/ml aprotinin, 1 µg/ml leupeptin) to the cell pellet from 1L of cell culture. The lysate was centrifuged at 19,000 rpm in a Sorval SS-34 rotor for 30 min at 4°C. The cell lysate was applied to a 5 ml NiCl2 chelating sepharose column, equilibrated with 50 mM HEPES, pH7.5, 0.3 M NaCl. KDR was eluted using the same buffer containing 0.25 M imidazole. Column fractions were analyzed using SDS-PAGE and an ELISA assay (below) which measures kinase activity. […]

zapfl = biological target: T3, zapfl (Homo sapiens, UniProt P43403); experiment: ELISA tyrosine kinase assay, zapfl (ZAP70)
T3 construct: the region encoding the entirety of ZAP70 (amino acids 1-619); made in house; host or cells: SF-9 insect cells (baculovirus, pVL1393)
T3 sequence (P43403 1-619): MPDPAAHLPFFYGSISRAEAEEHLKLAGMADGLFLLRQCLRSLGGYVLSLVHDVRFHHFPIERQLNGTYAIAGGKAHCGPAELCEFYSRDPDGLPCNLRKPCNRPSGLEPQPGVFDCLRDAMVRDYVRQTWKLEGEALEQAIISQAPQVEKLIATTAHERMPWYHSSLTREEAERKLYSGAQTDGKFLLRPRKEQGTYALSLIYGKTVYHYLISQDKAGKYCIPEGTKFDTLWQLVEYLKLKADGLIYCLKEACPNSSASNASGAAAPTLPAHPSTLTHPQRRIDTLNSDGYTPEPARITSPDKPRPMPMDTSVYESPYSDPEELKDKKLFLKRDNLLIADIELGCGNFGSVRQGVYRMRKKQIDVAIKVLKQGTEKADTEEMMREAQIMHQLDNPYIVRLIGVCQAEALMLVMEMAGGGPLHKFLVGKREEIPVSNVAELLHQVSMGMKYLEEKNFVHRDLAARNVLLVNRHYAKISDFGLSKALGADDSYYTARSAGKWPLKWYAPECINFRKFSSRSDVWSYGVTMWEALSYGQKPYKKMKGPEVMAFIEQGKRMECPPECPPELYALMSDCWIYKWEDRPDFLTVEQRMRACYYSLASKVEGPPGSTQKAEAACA
From the text: The baculoviral expression vector used was pVL1393. (Pharmingen, Los Angeles, Ca.) The nucleotide sequence encoding amino acids M(H)6 LVPR9S was placed 5' to the region encoding the entirety of ZAP70 (amino acids 1-619). The nucleotide sequence encoding the ZAP70 coding region was generated through PCR using cDNA libraries isolated from Jurkat immortalized T-cells. The histidine residues enabled affinity purification of the protein (vide infra). The LVPR9S bridge constitutes a recognition sequence for proteolytic cleavage by thrombin, enabling removal of the affinity tag from the enzyme. SF-9 insect cells were infected at a multiplicity of infection of 0.5 and harvested 48 hours post infection.
SF-9 cells were lysed in a buffer consisting of 20 mM Tris, pH 8.0, 137 mM NaCl, 10% glycerol, 1% Triton X-100, 1 mM PMSF, 1 µg/ml leupeptin, 10 µg/ml aprotinin and I mM sodium orthovanadate. The soluble lysate was applied to a chelating sepharose HiTrap column (Pharmacia) equilibrated in 50 mM HEPES, pH 7.5, 0.3 M NaCl. Fusion protein was eluted with 250 mM imidazole. The enzyme was stored in buffer containing 50 mM HEPES, pH 7.5, 50 mM NaCl and 5 mM DTT.
The disclosed protocol can be adapted for determining activity with respect to a specific RTK. […]
• 1. […] Shake on plate reader. • Read OD immediately at 450nm

Sequence of Lck (P06239 whole entry, species assumed, the tested form may be a part): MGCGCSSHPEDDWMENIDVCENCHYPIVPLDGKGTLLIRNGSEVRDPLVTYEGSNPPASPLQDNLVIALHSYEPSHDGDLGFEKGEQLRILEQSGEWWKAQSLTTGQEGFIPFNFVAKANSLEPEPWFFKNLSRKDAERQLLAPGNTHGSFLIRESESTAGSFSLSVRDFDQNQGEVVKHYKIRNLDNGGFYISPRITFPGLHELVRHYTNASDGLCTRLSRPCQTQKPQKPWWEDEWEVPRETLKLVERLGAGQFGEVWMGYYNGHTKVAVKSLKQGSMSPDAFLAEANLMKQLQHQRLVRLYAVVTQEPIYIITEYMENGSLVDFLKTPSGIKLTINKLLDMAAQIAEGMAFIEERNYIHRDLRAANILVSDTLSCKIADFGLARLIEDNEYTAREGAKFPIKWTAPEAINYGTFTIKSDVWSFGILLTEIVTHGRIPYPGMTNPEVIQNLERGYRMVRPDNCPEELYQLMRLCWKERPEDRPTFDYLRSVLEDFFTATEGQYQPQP

In the case of `c1ccc2c(c1)SCc1c(-c3ccncc3)n[nH]c1-2` [Compound III], the IC50 (Lck) is reported as > 30 µM, the IC50 (human Tie-2) is reported as > 30 µM and the IC50 (KDR tyrosine kinase) is reported as 13.4 µM. It also gave an IC50 (zapfl) of 30.3 µM.
